Assay results from US20230143612A1 (Arbutus Biopharma Corporation, priority 2020, published 2023).

The molecules below were run against PD-L1 His protein / PD-1 Fc protein (Homo sapiens, UniProt Q9NZQ7) (assay: HTRF Assay (PD-1/PD-L1 interaction)). Conditions: PD-L1 His 6 nM, PD-1 Fc 6 nM.
Sequence of PD-L1 His protein / PD-1 Fc protein (Q9NZQ7 19-238 limits assumed): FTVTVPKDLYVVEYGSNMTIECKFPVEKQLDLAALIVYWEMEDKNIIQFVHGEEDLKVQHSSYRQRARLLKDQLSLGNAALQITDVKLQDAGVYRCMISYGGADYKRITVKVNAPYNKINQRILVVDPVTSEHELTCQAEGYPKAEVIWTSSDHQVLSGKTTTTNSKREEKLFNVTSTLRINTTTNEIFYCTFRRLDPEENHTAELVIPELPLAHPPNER
Type: binding
Outline: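 Compounds tested from 20 μM down to 0.001 μM (3-fold) against 6 nM PD-L1 His and 6 nM PD-1 Fc, 15 min room temperature incubation. Detection after 1 h at room temperature with Tb cryptate anti-6HIS and XL665 anti-human IgG reagents (mixture at 0.35 nM and 6.7 nM), HTRF signal.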
For COc1nc(-c2cccc(-c3cccc(-c4ccn5c(=O)c(CNC[C@@H]6CCC(=O)N6)cnc5c4)c3C)c2Cl)ccc1CNC[C@@H]1CCC(=O)N1 [Example 32, 8-(2′-Chloro-3′-(6-methoxy-5-(((((S)-5-oxopyrrolidin-2-yl)methyl)amino)methyl)pyridin-2-yl)-2-methyl-[1,1′-biphenyl]-3-yl)-3-(((((S)-5-oxopyrrolidin-2-yl)methyl)amino)methyl)-4H-pyrido[1,2-a]pyrimidin-4-one], the IC50 was 2.3 nM.
With COc1nc(-c2cccc(-c3cccc(-c4ccn5c(=O)c(CNC[C@@H]6CCC(=O)N6)cnc5c4)c3Cl)c2Cl)ccc1CNC[C@@H]1CCC(=O)N1 [Example 33, 8-(2,2′-Dichloro-3′-(6-methoxy-5-(((((S)-5-oxopyrrolidin-2-yl)methyl)amino)methyl)pyridin-2-yl)-[1,1′-biphenyl]-3-yl)-3-(((((S)-5-oxopyrrolidin-2-yl)methyl)amino)methyl)-4H-pyrido[1,2-a]pyrimidin-4-one] the IC50 was 2.7 nM.
Work on CNCCCOc1cc(C)c2nc(-c3cccc(-c4cccc(-c5cc(=O)n6cc(OCCCNC)cc(C)c6n5)c4Cl)c3Cl)cc(=O)n2c1 [Example 35, 2,2′-(2,2′-Dichloro-[1,1′-biphenyl]-3,3′-diyl)bis(9-methyl-7-(3-(methylamino)propoxy)-4H-pyrido[1,2-a]pyrimidin-4-one)] yielded an IC50 of 350 nM.
COc1nc(-c2cccc(-c3cccc(-c4ccn5c(=O)c(CNC[C@@H]6CCC(=O)N6)cnc5c4)c3C)c2Cl)cnc1CNC[C@@H]1CCC(=O)N1 [Example 36, 8-(2′-Chloro-3′-(6-methoxy-5-(((((S)-5-oxopyrrolidin-2-yl)methyl)amino)methyl)pyrazin-2-yl)-2-methyl-[1,1′-biphenyl]-3-yl)-3-(((((S)-5-oxopyrrolidin-2-yl)methyl)amino)methyl)-4H-pyrido[1,2-a]pyrimidin-4-one] was tested, and the IC50 was 1.5 nM.
Work on Cc1c(-c2ccn3c(=O)c(CNC[C@@H]4CCC(=O)N4)cnc3c2)cccc1-c1cccc(-c2ccn3c(=O)c(CNC[C@@H]4CCC(=O)N4)cnc3c2)c1C [Example 37, 8,8′-(2,2′-Dimethyl-[1,1′-biphenyl]-3,3′-diyl)bis(3-(((((S)-5-oxopyrrolidin-2-yl)methyl)amino)methyl)-4H-pyrido[1,2-a]pyrimidin-4-one)] yielded an IC50 of 140 nM.
For COc1nc(-c2cccc(-c3cccc(-c4cnc(NCCNC(C)=O)c(OC)n4)c3Cl)c2Cl)cnc1NCCNC(C)=O [Example 38, N,N′-((((2,2′-Dichloro-[1,1′-biphenyl]-3,3′-diyl)bis(3-methoxypyrazine-5,2-diyl))bis(azanediyl))bis(ethane-2,1-diyl))diacetamide], the IC50 was 20 nM.
Molecule COc1nc(NCCNC(C)=O)cnc1-c1cccc(-c2cccc(-c3ncc(NCCNC(C)=O)nc3OC)c2Cl)c1Cl [Example 39, N,N′-((((2,2′-Dichloro-[1,1′-biphenyl]-3,3′-diyl)bis(6-methoxypyrazine-5,2-diyl))bis(azanediyl))bis(ethane-2,1-diyl))diacetamide] has an IC50 of 1000 nM.
CN1CCC(NC[C@@H]2CCC(=O)N2)c2ccc(-c3cccc(-c4cccc(-c5ccc6c(n5)N(C)CCC6NC[C@@H]5CCC(=O)N5)c4Cl)c3Cl)nc21 (stereo partly drawn) [Example 42, (5S,5'S)-5,5′-((((2,2′-Dichloro-[1,1′-biphenyl]-3,3′-diyl)bis(1-methyl-1,2,3,4-tetrahydro-1,8-naphthyridine-7,4-diyl))bis(azanediyl))bis(methylene))bis(pyrrolidin-2-one)] was tested, and the IC50 was 2.3 nM.
O=C1CC[C@@H](CNC2COc3nc(-c4cccc(-c5cccc(-c6ccc7c(n6)OCC7NC[C@@H]6CCC(=O)N6)c5Cl)c4Cl)ccc32)N1 (stereo partly drawn) [Example 44, (5S,5'S)-5,5′-((((2,2′-Dichloro-[1,1′-biphenyl]-3,3′-diyl)bis(2,3-dihydrofuro[2,3-b]pyridine-6,3-diyl))bis(azanediyl))bis(methylene))bis(pyrrolidin-2-one)] gave an IC50 of 550 nM.
Molecule COc1nc(-c2cccc(-c3cccc(-c4ccn5c(=O)c(CNC[C@@H]6CCC(=O)N6)cnc5c4)c3Cl)c2Cl)cnc1CNC[C@@H]1CCC(=O)N1 [Example 47, 8-(2,2′-Dichloro-3′-(6-methoxy-5-(((((S)-5-oxopyrrolidin-2-yl)methyl)amino)methyl)pyrazin-2-yl)-[1,1′-biphenyl]-3-yl)-3-(((((S)-5-oxopyrrolidin-2-yl)methyl)amino)methyl)-4H-pyrido[1,2-a]pyrimidin-4-one] has an IC50 of 1.4 nM.
O=C1CC[C@@H](CNCc2cnc3cc(-c4cccc(-c5cccc(-c6ccn7c(=O)c(CNC[C@@H]8CCC(=O)N8)cnc7c6)c5Cl)c4Cl)ccn3c2=O)N1 [Example 48, (S)-8,8′-(2,2′-Dichloro-[1,1′-biphenyl]-3,3′-diyl)bis(3-(((((S)-5-oxopyrrolidin-2-yl)methyl)amino)methyl)-4H-pyrido[1,2-a]pyrimidin-4-one)] was tested, and the IC50 was 7 nM.
For COc1nc(-c2cccc(-c3cccc(-c4ccn5c(=O)c(CNC[C@@H]6CCC(=O)N6)ccc5c4)c3C)c2Cl)cnc1CNC[C@@H]1CCC(=O)N1 [Example 49, 8-(2′-Chloro-3′-(6-methoxy-5-(((((S)-5-oxopyrrolidin-2-yl)methyl)amino)methyl)pyrazin-2-yl)-2-methyl-[1,1′-biphenyl]-3-yl)-3-(((((S)-5-oxopyrrolidin-2-yl)methyl)amino)methyl)-4H-quinolizin-4-one], the IC50 was 6.3 nM.
Cc1c(-c2ccn3c(=O)c(CNC[C@@H]4CCC(=O)N4)cnc3c2)cccc1-c1cccc(-c2ccc(CNC[C@@H]3CCC(=O)N3)c(Cl)n2)c1Cl [Example 50, 8-(2′-Chloro-3′-(6-chloro-5-(((((S)-5-oxopyrrolidin-2-yl)methyl)amino)methyl)pyridin-2-yl)-2-methyl-[1,1′-biphenyl]-3-yl)-3-(((((S)-5-oxopyrrolidin-2-yl)methyl)amino)methyl)-4H-pyrido[1,2-a]pyrimidin-4-one] gave an IC50 of 8.1 nM.
With COc1nc(-c2cccc(-c3cccc(-c4ccn5c(=O)c(CN(C)C[C@@H]6CCC(=O)N6)cnc5c4)c3C)c2Cl)ccc1CNC[C@@H]1CCC(=O)N1 [Example 54, 8-(2′-Chloro-3′-(6-methoxy-5-(((((S)-5-oxopyrrolidin-2-yl)methyl)amino)methyl)pyridin-2-yl)-2-methyl-[1,1′-biphenyl]-3-yl)-3-((methyl(((S)-5-oxopyrrolidin-2-yl)methyl)amino)methyl)-4H-pyrido[1,2-a]pyrimidin-4-one] the IC50 was 7 nM.
COc1nc(-c2cccc(-c3cccc(-c4ccn5c(=O)c(CN(C)C[C@@H]6CCC(=O)N6)cnc5c4)c3C)c2Cl)ccc1CN1CC(O)C1 [Example 55, (S)-8-(2′-Chloro-3′-(5-((3-hydroxyazetidin-1-yl)methyl)-6-methoxypyridin-2-yl)-2-methyl-[1,1′-biphenyl]-3-yl)-3-((methyl((5-oxopyrrolidin-2-yl)methyl)amino)methyl)-4H-pyrido[1,2-a]pyrimidin-4-one] was tested, and the IC50 was 43 nM.
With Cc1c(-c2ccn3c(=O)c(CNC[C@@H]4CCC(=O)N4)cnc3c2)cccc1-c1cccc(-c2ccc(CNC[C@@H]3CCC(=O)N3)c(F)n2)c1Cl [Example 57, 8-(2′-Chloro-3′-(6-fluoro-5-(((((S)-5-oxopyrrolidin-2-yl)methyl)amino)methyl)pyridin-2-yl)-2-methyl-[1,1′-biphenyl]-3-yl)-3-(((((S)-5-oxopyrrolidin-2-yl)methyl)amino)methyl)-4H-pyrido[1,2-a]pyrimidin-4-one] the IC50 was 3.1 nM.
With COc1nc(-c2cccc(-c3cccc(-c4cc(=O)n5cc(CNC[C@@H]6CCC(=O)N6)ccc5n4)c3Cl)c2Cl)cnc1CNC[C@@H]1CCC(=O)N1 [Example 58, 2-(2,2′-Dichloro-3′-(6-methoxy-5-(((((S)-5-oxopyrrolidin-2-yl)methyl)amino)methyl)pyrazin-2-yl)-[1,1′-biphenyl]-3-yl)-7-(((((S)-5-oxopyrrolidin-2-yl)methyl)amino)methyl)-4H-pyrido[1,2-a]pyrimidin-4-one] the IC50 was 2.2 nM.
For COc1nc(-c2cccc(-c3cccc(-c4cc(=O)n5cc(CNC[C@@H]6CCC(=O)N6)ccc5n4)c3Cl)c2Cl)ccc1CNC[C@@H]1CCC(=O)N1 [Example 59, 2-(2,2′-Dichloro-3′-(6-methoxy-5-(((((S)-5-oxopyrrolidin-2-yl)methyl)amino)methyl)pyridin-2-yl)-[1,1′-biphenyl]-3-yl)-7-(((((S)-5-oxopyrrolidin-2-yl)methyl)amino)methyl)-4H-pyrido[1,2-a]pyrimidin-4-one], the IC50 was 2.9 nM.
Molecule O=C1CC[C@@H](CNCc2ccc3nc(-c4cccc(-c5cccc(-c6cc(=O)n7cc(CNC[C@@H]8CCC(=O)N8)ccc7n6)c5Cl)c4Cl)cc(=O)n3c2)N1 [Example 60, 2,2′-(2,2′-Dichloro-[1,1′-biphenyl]-3,3′-diyl)bis(7-(((((S)-5-oxopyrrolidin-2-yl)methyl)amino)methyl)-4H-pyrido[1,2-a]pyrimidin-4-one)] has an IC50 of 460 nM.
In the case of Cc1c(-c2ccn3c(=O)c(CNC[C@@H]4CCC(=O)N4)cnc3c2)cccc1-c1cccc(-c2ccc(CNC[C@@H]3CCC(=O)N3)cn2)c1Cl [Example 61, 8-(2′-Chloro-2-methyl-3′-(5-(((((S)-5-oxopyrrolidin-2-yl)methyl)amino)methyl)pyridin-2-yl)-[1,1′-biphenyl]-3-yl)-3-(((((S)-5-oxopyrrolidin-2-yl)methyl)amino)methyl)-4H-pyrido[1,2-a]pyrimidin-4-one], the IC50 is reported as 16 nM.
For Cc1c(-c2ccn3c(=O)c(CNC4CNC(=O)C4)cnc3c2)cccc1-c1cccc(-c2ccc(CNC[C@@H]3CCC(=O)N3)c(F)n2)c1Cl (stereo partly drawn) [Example 62, 8-(2′-Chloro-3′-(6-fluoro-5-(((((S)-5-oxopyrrolidin-2-yl)methyl)amino)methyl)pyridin-2-yl)-2-methyl-[1,1′-biphenyl]-3-yl)-3-(((5-oxopyrrolidin-3-yl)amino)methyl)-4H-pyrido[1,2-a]pyrimidin-4-one], the IC50 was 19 nM.
